Assay [1] relates to DLD1 BRCA2 (−/−) cells. Description: DLD1 viability assay (CellTiter-Glo, 7 days), DLD1 BRCA2 (−/−). Type of assay: cell-based. The note with it: read-out: Viability IC50 (μM) DLD1 BRCA2 null. On the procedure:
(§1) The seeding densities are pre-determined from the growth curve kinetics performed to ensure log linear phase of cell growth for these 2 cell lines. These assay plates are then placed in the incubator at 37° C., 5% CO2, relative humidity>90% for a few hours before addition of test compounds. Compounds are dispensed using the Tecan HPD300 or Echo based on the plate map in the appropriate wells of the 384-well plates. […] After addition of the test compounds, the plates are incubated at 37° C., 5% CO2, relative humidity>90% for 7 days. CellTiter-Glo (Promega Cat. No. G7573), ATP detection reagent is prepared according to manufacturer's specifications. Cell assay plates are removed from incubator and bring to room temperature (RT) by letting them sit at bench top for at least 15 min. Using the MultiDrop liquid handler or a multichannel pipette, 35 μL/well of CTG is added and the plates are then placed shakes for 5 seconds, RT. These plates are then incubated for 30 minutes in the dark at RT before measuring luminescence using Spectramax/Enspire/Ensight/Envision/PheraSTAR.

Assay [2] relates to DLD1 WT cells. Briefly: DLD1 viability assay (CellTiter-Glo, 7 days), DLD1 WT. Format: cell-based. As for the experimental part: as §1
(ATP-based viability assays read luminescence as a measure of living cells.)

This passage reports IC50 results from US20260015360A1 (MOMA Therapeutics, Inc., priority 2023, published 2026).

Read-outs that look alike come from different tables or passages of the source.

The IC50 is the concentration that inhibits the measured activity by half.

Take `COc1cnc(Cl)cc1-c1cc(C)ncc1C(=O)Nc1nc2ncc(N3CC[C@](C)(OC)[C@H](F)C3)nc2s1` (single isomer, unassigned) [Example 362, 2′-chloro-N-(6-((3R or S,4S or R)-3-fluoro-4-methoxy-4-methylpiperidin-1-yl)thiazolo[4,5-b]pyrazin-2-yl)-5′-methoxy-6-methyl-[4,4′-bipyridine]-3-carboxamide]: the IC50 in assay [1] (Homo sapiens, DLD-1, 168 h) is 0.1 to 0.25 µM; in assay [2] (Homo sapiens, DLD-1, 168 h) it was greater than 10 µM.
In the same order, the values of `COc1cnc(Cl)cc1-c1cc(C)ncc1C(=O)Nc1nc2ncc([C@H]3CCN(CC(F)(F)F)C3)nc2s1` (single isomer, unassigned) [Example 364, (S or R)-2′-chloro-5′-methoxy-6-methyl-N-(6-(1-(2,2,2-trifluoroethyl)pyrrolidin-3-yl)thiazolo[4,5-b]pyrazin-2-yl)-[4,4′-bipyridine]-3-carboxamide] are 0.1 to 0.25 µM and greater than 10 µM.
On the same counts, the results for `COc1cnc(Cl)cc1-c1cc(C)ncc1C(=O)Nc1nc2ncc([C@@H]3CCN(CC(F)(F)F)C3)nc2s1` (single isomer, unassigned) [Example 365, (R or S)-2′-chloro-5′-methoxy-6-methyl-N-(6-(1-(2,2,2-trifluoroethyl)pyrrolidin-3-yl)thiazolo[4,5-b]pyrazin-2-yl)-[4,4′-bipyridine]-3-carboxamide] are 0.001 to 0.1 µM and greater than 10 µM.
As to `COc1cnc(Cl)cc1-c1cc(C)ncc1C(=O)Nc1nc2ncc(N3CC[C@](C)(O)[C@H](F)C3)nc2s1` (single isomer, unassigned) [Example 375, 2′-chloro-N-(6-((3R or S,4S or R)-3-fluoro-4-hydroxy-4-methylpiperidin-1-yl)thiazolo[4,5-b]pyrazin-2-yl)-5′-methoxy-6-methyl-[4,4′-bipyridine]-3-carboxamide], the IC50 in assay [1] (Homo sapiens, DLD-1, 168 h) was 0.001 to 0.1 µM; in assay [2] (Homo sapiens, DLD-1, 168 h), greater than 10 µM.
In the same order, the values of `COc1cnc(Cl)cc1-c1cc(C)ncc1C(=O)Nc1nc2ncc(N3CC[C@@](C)(O)[C@@H](F)C3)nc2s1` (single isomer, unassigned) [Example 376, 2′-chloro-N-(6-((3S or R,4R or S)-3-fluoro-4-hydroxy-4-methylpiperidin-1-yl)thiazolo[4,5-b]pyrazin-2-yl)-5′-methoxy-6-methyl-[4,4′-bipyridine]-3-carboxamide] are 0.001 to 0.1 µM and greater than 10 µM.
In the same order, the values of `COc1cnc(Cl)cc1-c1cc(C)ncc1C(=O)Nc1nc2ncc(C3CN(CC(F)(F)F)C3)nc2s1` (single isomer, unassigned) [Example 378, 2′-chloro-5′-methoxy-6-methyl-N-(6-(1-(2,2,2-trifluoroethyl)azetidin-3-yl)thiazolo[4,5-b]pyrazin-2-yl)-[4,4′-bipyridine]-3-carboxamide] are 0.001 to 0.1 µM and greater than 10 µM.
On the same counts, the results for `COc1cnc(Cl)cc1-c1cc(C)ncc1C(=O)Nc1nc2ncc([C@H]3CCOC(C)(C)C3)nc2s1` (single isomer, unassigned) [Example 379, (S or R)-2′-chloro-N-(6-(2,2-dimethyltetrahydro-2H-pyran-4-yl)thiazolo[4,5-b]pyrazin-2-yl)-5′-methoxy-6-methyl-[4,4′-bipyridine]-3-carboxamide] are 0.001 to 0.1 µM and greater than 10 µM.
As for `COc1cnc(Cl)cc1-c1cc(C)ncc1C(=O)Nc1nc2ncc([C@@H]3CCOC(C)(C)C3)nc2s1` (single isomer, unassigned) [Example 382, (R or S)-2′-chloro-N-(6-(2,2-dimethyltetrahydro-2H-pyran-4-yl)thiazolo[4,5-b]pyrazin-2-yl)-5′-methoxy-6-methyl-[4,4′-bipyridine]-3-carboxamide], the IC50 in assay [1] (Homo sapiens, DLD-1, 168 h) was 0.001 to 0.1 µM; in assay [2] (Homo sapiens, DLD-1, 168 h), greater than 10 µM.
In the case of `COc1cnc(Cl)cc1-c1cc(C)ncc1C(=O)Nc1nc2ncc(N3CCO[C@H](C)[C@@H]3C)nc2s1` (single isomer, unassigned) [Example 400, 2′-chloro-N-(6-((2R or S,3S or R)-2,3-dimethylmorpholino)thiazolo [4,5-b]pyrazin-2-yl)-5′-methoxy-6-methyl-[4,4′-bipyridine]-3-carboxamide], the IC50 was 0.001 to 0.1 µM in assay [1] (Homo sapiens, DLD-1, 168 h) and greater than 10 µM in assay [2] (Homo sapiens, DLD-1, 168 h).
As for `COc1cnc(Cl)cc1-c1cc(C)ncc1C(=O)Nc1nc2ncc(C3=CCC(O)(C(F)(F)F)CC3)nc2s1` (single isomer, unassigned) [Example 413, 2′-chloro-N-(6-(4-hydroxy-4-(trifluoromethyl)cyclohex-1-en-1-yl)thiazolo[4,5-b]pyrazin-2-yl)-5′-methoxy-6-methyl-[4,4′-bipyridine]-3-carboxamide], the IC50 in assay [1] (Homo sapiens, DLD-1, 168 h) was 0.001 to 0.1 µM; in assay [2] (Homo sapiens, DLD-1, 168 h) it was greater than 10 µM.
On the same counts, the results for `COc1cnc(Cl)cc1-c1cc(C)ncc1C(=O)Nc1nc2ncc([C@H]3CCO[C@H](C)C3)nc2s1` (single isomer, unassigned) [Example 431, 2′-chloro-5′-methoxy-6-methyl-N-(6-((2R or S,4S or R)-2-methyltetrahydro-2H-pyran-4-yl)thiazolo[4,5-b]pyrazin-2-yl)-[4,4′-bipyridine]-3-carboxamide] are 0.001 to 0.1 µM and greater than 10 µM.
In the same order, the values of `COc1cnc(Cl)cc1-c1cc(C)ncc1C(=O)Nc1nc2ncc([C@H]3CCO[C@@H](C)C3)nc2s1` (single isomer, unassigned) [Example 434A, 2′-chloro-5′-methoxy-6-methyl-N-(6-((2S or R,4S or R)-2-methyltetrahydro-2H-pyran-4-yl)thiazolo[4,5-b]pyrazin-2-yl)-[4,4′-bipyridine]-3-carboxamide] are 0.001 to 0.1 µM and greater than 10 µM.
Consider `COc1cnc(Cl)cc1-c1cc(C)ncc1C(=O)Nc1nc2ncc([C@@H]3CCO[C@H](C)C3)nc2s1` (single isomer, unassigned) [Example 435, 2′-chloro-5′-methoxy-6-methyl-N-(6-((2R or S,4R or S)-2-methyltetrahydro-2H-pyran-4-yl)thiazolo[4,5-b]pyrazin-2-yl)-[4,4′-bipyridine]-3-carboxamide], for which the IC50 in assay [1] (Homo sapiens, DLD-1, 168 h) was 0.001 to 0.1 µM; in assay [2] (Homo sapiens, DLD-1, 168 h), greater than 10 µM.
On the same counts, the results for `COc1cnc(Cl)cc1-c1cc(C)ncc1C(=O)Nc1nc2ncc(N3CC[C@H](OC)C(F)(F)C3)nc2s1` (single isomer, unassigned) [Example 441, (S or R)-2′-chloro-N-(6-(3,3-difluoro-4-methoxypiperidin-1-yl)thiazolo[4,5-b]pyrazin-2-yl)-5′-methoxy-6-methyl-[4,4′-bipyridine]-3-carboxamide] are 0.001 to 0.1 µM and 0.001 to 2.5 µM.
`COc1cnc(Cl)cc1-c1cc(C)ncc1C(=O)Nc1nc2ncc(N3CCC(OC)C(F)(F)C3)nc2s1` (single isomer, unassigned) [Example 444, (R or S)-2′-chloro-N-(6-(3,3-difluoro-4-methoxypiperidin-1-yl)thiazolo[4,5-b]pyrazin-2-yl)-5′-methoxy-6-methyl-[4,4′-bipyridine]-3-carboxamide]: the IC50 in assay [1] (Homo sapiens, DLD-1, 168 h) is 0.001 to 0.1 µM; in assay [2] (Homo sapiens, DLD-1, 168 h), greater than 10 µM.
As for `COc1cnc(Cl)cc1-c1cc(C)ncc1C(=O)Nc1nc2ncc(N3CCC(O)C(F)(F)C3)nc2s1` (single isomer, unassigned) [Example 457, (S or R)-2′-chloro-N-(6-(3,3-difluoro-4-hydroxypiperidin-1-yl)thiazolo[4,5-b]pyrazin-2-yl)-5′-methoxy-6-methyl-[4,4′-bipyridine]-3-carboxamide], the IC50 was 0.1 to 0.25 µM in assay [1] and greater than 10 µM in assay [2] (Homo sapiens, DLD-1, 168 h).
With `COc1cnc(Cl)cc1-c1cc(C)ncc1C(=O)Nc1nc2ncc(N3CCC(O)C(F)(F)C3)nc2s1` (single isomer, unassigned) [Example 458, (R or S)-2′-chloro-N-(6-(3,3-difluoro-4-hydroxypiperidin-1-yl)thiazolo[4,5-b]pyrazin-2-yl)-5′-methoxy-6-methyl-[4,4′-bipyridine]-3-carboxamide], the figures for the IC50 in assay [1] and in assay [2] were 0.001 to 0.1 µM and greater than 10 µM, respectively.
On to `COc1ccccc1-c1cc(C)ncc1C(=O)Nc1nc2ccc(N3CCCCC3)cc2s1` [Example 91, 4-(2-Methoxyphenyl)-6-methyl-N-(6-(piperidin-1-yl)benzo[d]thiazol-2-yl)nicotinamide], for which the IC50 is 0.5 to 2 µM in assay [1] (Homo sapiens, DLD-1, 168 h) and 7.5 to 10 µM in assay [2] (Homo sapiens, DLD-1, 168 h).
As to `COc1cnc(Cl)cc1-c1cc(C)ncc1C(=O)Nc1nc2ncc(C3CCC(OC)(C(F)F)CC3)nc2s1` (stereo not drawn) [Example 383, 2′-chloro-N-(6-(4-(difluoromethyl)-4-methoxycyclohexyl)thiazolo [4,5-b]pyrazin-2-yl)-5′-methoxy-6-methyl-[4,4′-bipyridine]-3-carboxamide], the IC50 in assay [1] (Homo sapiens, DLD-1, 168 h) was 0.001 to 0.1 µM; in assay [2] (Homo sapiens, DLD-1, 168 h), greater than 10 µM.
With `COc1nnc(C(F)F)cc1-c1cc(C)ncc1C(=O)Nc1nc2ncc(-c3ccnc(C)c3)nc2s1` [Example 384, 4-(6-(difluoromethyl)-3-methoxypyridazin-4-yl)-6-methyl-N-(6-(2-methylpyridin-4-yl)thiazolo[4,5-b]pyrazin-2-yl)nicotinamide], the IC50 was 0.1 to 0.25 µM in assay [1] (Homo sapiens, DLD-1, 168 h) and greater than 10 µM in assay [2] (Homo sapiens, DLD-1, 168 h).
In the same order, the values of `COc1cnc(Cl)cc1-c1cc(C)ncc1C(=O)Nc1nc2ncc(C3=CCC(OC)(C(F)F)CC3)nc2s1` (stereo not drawn) [Example 388, 2′-chloro-N-(6-(4-(difluoromethyl)-4-methoxycyclohex-1-en-1-yl)thiazolo[4,5-b]pyrazin-2-yl)-5′-methoxy-6-methyl-[4,4′-bipyridine]-3-carboxamide] are 0.001 to 0.1 µM and greater than 10 µM.
